Laboratory results as given in publication PMC3326641 (Journal of Medicinal Chemistry, 2012).

Molecular target: T1, TrxR (rat liver thioredoxin reductase) (Rattus norvegicus, UniProt O89049)
T1 sequence (O89049 1-499): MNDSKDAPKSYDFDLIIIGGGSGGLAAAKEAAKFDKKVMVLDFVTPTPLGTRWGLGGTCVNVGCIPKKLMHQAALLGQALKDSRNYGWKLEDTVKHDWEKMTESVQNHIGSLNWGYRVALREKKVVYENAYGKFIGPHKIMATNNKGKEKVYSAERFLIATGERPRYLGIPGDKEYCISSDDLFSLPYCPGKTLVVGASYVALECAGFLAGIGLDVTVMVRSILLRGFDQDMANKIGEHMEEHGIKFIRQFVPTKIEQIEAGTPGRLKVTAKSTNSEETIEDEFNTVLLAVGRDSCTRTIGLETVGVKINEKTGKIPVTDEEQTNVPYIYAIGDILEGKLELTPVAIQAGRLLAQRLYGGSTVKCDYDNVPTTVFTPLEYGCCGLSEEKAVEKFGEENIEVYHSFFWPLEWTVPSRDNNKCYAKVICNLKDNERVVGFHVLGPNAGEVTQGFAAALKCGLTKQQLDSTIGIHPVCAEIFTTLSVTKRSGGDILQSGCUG
Test: DTNB reduction, absorbance at […] nm
Type: biochemical

SMILES: CC(C)(C)OC(=O)n1ccc2c[c]([Au-][P+](C3CCCCC3)(C3CCCCC3)C3CCCCC3)ccc21 [compound 4, [5-{Tricyclohexylphosphine gold(I)}-tert-butyl 1H-indole-1-carboxylate]]
- inhibition at 40 µM: 39%
